This is an account of results in US11726081B2, “Methods to identify modulators of tau protein structure” (REGENTS OF THE UNIVERSITY OF MINNESOTA, priority 2019, dated 2023).

Experiment [1] deals with purified recombinant full-length 2N4R wild-type (WT) tau protein (Homo sapiens, UniProt P10636). Kind of experiment: Surface plasmon resonance (SPR) binding assay, WT tau. The conditions noted are these: for direct binding to immobilized tau protein: 1 nM to 5 μM. For orientation: In SPR one partner is held on a chip, and binding of the other changes the refractive index at the surface.
Chain of purified recombinant full-length 2N4R wild-type (WT) tau protein (P10636 1-441 isoform P10636-8): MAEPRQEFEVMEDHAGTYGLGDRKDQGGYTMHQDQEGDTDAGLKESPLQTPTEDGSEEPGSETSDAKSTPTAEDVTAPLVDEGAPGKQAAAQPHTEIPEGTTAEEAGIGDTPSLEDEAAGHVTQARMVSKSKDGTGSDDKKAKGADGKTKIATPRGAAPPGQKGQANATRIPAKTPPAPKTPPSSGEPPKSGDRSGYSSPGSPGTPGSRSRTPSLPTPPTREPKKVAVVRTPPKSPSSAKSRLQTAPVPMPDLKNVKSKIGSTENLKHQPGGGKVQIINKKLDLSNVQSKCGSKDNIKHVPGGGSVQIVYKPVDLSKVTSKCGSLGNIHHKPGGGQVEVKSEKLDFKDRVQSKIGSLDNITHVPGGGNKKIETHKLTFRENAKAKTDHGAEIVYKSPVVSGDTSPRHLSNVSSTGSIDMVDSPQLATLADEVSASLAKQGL

The next experiment deals with purified WT tau proteins (Homo sapiens, UniProt P10636). In words: Heparin induced thioflavin-T (ThT) aggregation assay. It counts as biochemical. How it is done:
Thioflavin-T (ThT, Sigma, product no. T3516) was dissolved in PBS buffer and was filtered through a 0.2 μm syringe filter to make a stock solution of 2.5 mM. ThT was then diluted to […] prior to addition to the tau proteins. The samples for ThT measurements were prepared by mixing 25 μl of 20 μM tau proteins with 25 μl of 20 μM of ThT, resulting in final concentrations of 10 μM tau proteins and 10 μM ThT. DTT (5 mM) and heparin (0.4 mg/ml) were then added to the samples; a control sample lacked addition of heparin. Lastly, the samples were treated with MK-886 (0.5 μM or 5 μM) and gossypetin (50 μM) with DMSO added to the no-compound controls. The ThT samples (50 μl each) were transferred to a black 96-well non-binding surface microplate with clear bottom (Corning product no. 3655) and incubated at 37° C. with mild shaking (200 rpm) in the Cytation 3 plate reader. The ThT fluorescence was measured by the Cytation 3 plate reader through the bottom of the plate with excitation filter of 440 nm and emission filter of 480 nm. Readings were acquired every 20 minutes for a total of 120 hours.

For experiment [2], the target named is tau preformed fibrils (PFF) (Homo sapiens, UniProt P10636). Kind of experiment: ThT assay on tau preformed fibrils (PFF). It counts as biochemical. As to conditions: DTT 5 mM. How it is done: HEK293 cells were transfected with tau-RFP (at equivalent DNA concentration as used in the tau FRET biosensor) for 48 hours prior to the addition of tau preformed fibrils (PFF). Tau-GFP was not used as it would interfere with the thioflavin-S(ThS) signal. To make the PFF, 100 μl of purified tau proteins (10 μM) with DTT (5 mM) and heparin (0.4 mg/ml) were first incubated for 120 hours at 37° C. and shook at 1000 rpm in a thermal shaker (Thermo Fisher Scientific). After incubation, the sample was subjected to ultracentrifugation at 80,000 rpm for 30 minutes. The pellet was collected and sonicated to break up the fibrils into smaller pieces. The concentration of the fibrils was then measured by BCA. […] Cells were then imaged with a fluorescence microscope using EVOS-FL cell imaging systems at 20× magnification. Mean fluorescence intensity for each image was quantified using ImageJ and values were normalized to untransfected controls.
Chain of tau preformed fibrils (PFF) (P10636 1-441 isoform P10636-8): as above
Thioflavin-T (ThT, Sigma, product no. T3516) was dissolved in PBS buffer and was filtered through a 0.2 μm syringe filter to make a stock solution of 2.5 mM. […] The ThT samples (50 μl each) were transferred to a black 96-well non-binding surface microplate with clear bottom (Corning product no. 3655) and incubated at 37° C. with mild shaking (200 rpm) in the Cytation 3 plate reader. […] Readings were acquired every 20 minutes for a total of 120 hours.

In experiment [3] the target is T1, WT tau FRET biosensor (tau-GFP/RFP) (Homo sapiens, UniProt P10636). Kind of experiment: WT tau inter-molecular FRET biosensor in HEK293 cells (dose-response, functionality). It counts as cell-based. Also noted: cDNA encoding full-length 2N4R tau (441 amino acids); […]; expressed in transfected cells; host or cells: HEK293, transient, tau-GFP:tau-RFP plasmids 1:20. How it is done: (§1) HEK293 and SH-SY5Y cells (ATCC) were cultured in phenol red-free Dulbecco's Modified Eagle Medium (DMEM, Gibco) supplemented with 2 mM L-Glutamine (Invitrogen), heat-inactivated 10% fetal bovine serum (FBS HI, Gibco), 100 U/ml penicillin and 100 μg/ml streptomycin (Gibco). Cell cultures were maintained in an incubator with 5% CO2 (Forma Series II Water Jacket CO2 Incubator, Thermo Scientific) at 37° C. […] To generate stable cell lines expressing GFP-tau-RFP or tau-GFP only, HEK293 cells were transiently transfected using Lipofectamine 3000 with GFP-tau-RFP or tau-GFP DNA plasmids. Transiently transfected cells were treated with G418 (Enzo Life Sciences, Farmingdale, N.Y.) to eliminate non-expressing cells. Stable cell lines expressing GFP-tau-RFP or tau-GFP with the largest population of expressing cells were selected by fluorescence microscopy. The GFP-linker-RFP (linker contains 32 amino acids, GFP-32AA-RFP) control stable cell line was generated as described previously. The control cells expressing only free soluble fluorophores (GFP or RFP only) were generated by transiently transfecting HEK293 cells using Lipofectamine 3000 with plasmids containing GFP or RFP DNAs at the same plasmid concentration as the inter-molecular tau FRET biosensor.
T1 sequence (P10636 1-441 isoform P10636-8): as above
T1 sequence (P10636 1-441 isoform P10636-8): as above
(§2) The compound was dissolved in DMSO to make a 10 mM stock solution, which was serially diluted in 96-well mother plates. […]

In experiment [4] the target is T2, tau intra-molecular FRET biosensor (GFP-tau-RFP) (Homo sapiens, UniProt P10636).
T2 construct: The FRET biosensors express full-length 2N4R wild-type (WT) tau; […]; expressed in transfected cells
T2 sequence (P10636 1-441 isoform P10636-8): as above
Kind of experiment: Cellular tau intra-molecular FRET biosensor, dose-response. It counts as cell-based. The conditions noted are these: GFP-tau-RFP stable HEK293 cells; read-out: EC50, reduction of intra-molecular FRET. How it is done: To generate tau-GFP and tau-RFP, cDNA encoding full-length 2N4R tau (441 amino acids) was fused to the N-terminus of EGFP and TagRFP vectors. […] The GFP-tau-RFP was generated by fusing the N-terminal of tau to the C-terminus of GFP and the C-terminus of tau to the N-terminus of RFP. All constructs contain the monomeric mutation A206K to prevent constitutive fluorophore clustering.
as §1, with “The control cells expressing only free soluble fluorophores (GFP or RFP only) were generated by transiently transfecting HEK293 cells using Lipofectamine 3000 with plasmids containing GFP or RFP DNAs at the same plasmid concentration as the inter-molecular tau FRET biosensor.” left out

A further experiment has as its system GFP-32AA-RFP. In words: GFP-32AA-RFP fluorophores-only FRET control. It counts as cell-based, human. How it is done: as §1, §2
The subject of another experiment is soluble free GFP/RFP. Kind of experiment: Soluble free GFP/RFP-only FRET control. It is filed as cell-based, human. How it is done: as §1, §2
In the next experiment the test system is WT 2N4R tau. Kind of experiment: Single-molecule FRET (smFRET) on labelled tau monomer. It counts as biochemical. As to conditions: 5 μM. The text has this: For site-specific labeling with maleimide-reactive fluorophores, cysteine residues were introduced using QuikChange Site-Directed Mutagenesis (Stratagene). Naturally occurring cysteines were mutated to serines. Labelling positions were selected to roughly mark the boundaries of the N-terminal domain or the proline-rich and microtubule-binding region of tau. Tau protein was purified as described above and labeled immediately following purification following published protocols. Briefly, the protein (typically 200 μL of ˜100 μM protein) was incubated with 1 mM DTT for 30 minutes at room temperature followed by exchange into labeling buffer (20 mM Tris pH 7.4, 50 mM NaCl, and 6 M guanidine HCl) to remove DTT. […]
Single-molecule FRET measurements were carried out using ˜30 pM of labelled tau in phosphate buffer (40 mM potassium phosphate, 50 mM KCl, pH 7.4) in 8-chambered Nunc coverslips (ThermoFisher) passivated with poly(ethylene glycol) poly(L-lysine) (PEG-PLL) to reduce protein adsorption to the chambers. […] Fluorescence emission was collected through the objective and passed through a 150 μm diameter pinhole. Photons were separated by an HQ585LP dichroic in combination with ET525/50M and HQ600LP filters and detected by avalanche photodiodes. […] The FRET efficiency (ETeff) was calculated using SymphoTime 64 software. […]

Experiment [5] addresses T1, WT tau FRET biosensor (tau-GFP/RFP). In words: Pilot HTS of NCC library with tau FRET biosensor (fluorescence lifetime). The conditions noted are these: 10 μM, 2 hours.
[6] abbreviates: control, 72 hours of incubation.

pEC50, pKd: −log10 of the molar value. “Also recorded” adds a separate entry of the source.

Chain of purified WT tau proteins (P10636 1-441 isoform P10636-8): as above

For `Cc1cccc(Nc2ccncc2S(=O)(=O)NC(=O)NC(C)C)c1` [Torsemide], the “direct binding to immobilized tau protein” value (from here on “direct binding”) in experiment [1] is “no direct binding or interaction”.
Turning to `CCCCNc1cc(C(=O)O)cc(S(N)(=O)=O)c1Oc1ccccc1` [Bumetanide], in experiment [1], the “direct binding” value is “no direct binding or interaction”.
Turning to `O=c1c(O)c(-c2ccc(O)c(O)c2)oc2c(O)c(O)cc(O)c12` [gossypetin], the “direct effect on ThT fluorescence” value on purified WT tau proteins (setting [6]) is listed as “do not interfere with ThT fluorescence”. In addition, in experiment [2], the “ThT signal from tau preformed fibrils (PFF)” value is “showed a significant decrease”. For the same compound, the “sensitivity of the FRET biosensor to the compound” value in experiment [3] (functionality test) is “not”.
`Oc1cc(Cl)ccc1Oc1ccc(Cl)cc1Cl` [Triclosan]: the “direct binding” value in [1] was “no direct binding or interaction”.
Regarding `CCc1oc2ccccc2c1C(=O)c1cc(Br)c(O)c(Br)c1` [Benzbromarone], in [1], the “direct binding” value is “no direct binding or interaction”.
For the compound `CC(C)c1ccc2c(c1)c(SC(C)(C)C)c(CC(C)(C)C(=O)O)n2Cc1ccc(Cl)cc1` [MK-886], the “direct binding” value in experiment [1] was “dose-dependent binding”. The pKd – broadly, the negative decadic logarithm of the Kd, by convention in mol/L – in experiment [1] (steady-state, immobilized tau, 25° C.) was 6.75. Moreover, the pEC50 (in general, −log10 of the EC50, conventionally taken in molar units) in experiment [4] was 5.67. The “FRET change in GFP-32AA-RFP control cells” value in the experiment with GFP-32AA-RFP is recorded as “does not cause any significant FRET change”. The “FRET change in soluble free GFP/RFP-only control cells” value in the experiment on soluble free GFP/RFP is “does not cause any significant FRET change”. Also, in the experiment with WT 2N4R tau, the “smFRET change, N-terminal domain labelled construct” value is “only a minor decrease in FRET; also recorded: only minor differences” and the “smFRET change, PRR/MTBR labelled construct” value is given as “substantial increase in FRET; also recorded: substantially more compact (increase in FRET)”. Also, on purified WT tau proteins (setting [6]), the “direct effect on ThT fluorescence” value is listed as “did not have a direct effect on ThT fluorescence; also recorded: do not interfere with ThT fluorescence” and the “nucleation of fibril formation without heparin” value is given as “unable to nucleate tau fibrillization; also recorded: did not act to nucleate for fibril formation; also recorded: does not act as a nucleation center”. Moreover, the “lag phase of tau β-sheet fibril formation” value at purified WT tau proteins (heparin 0.4 mg/ml, MK-886 0.5 and 5 μM) was “reduces the lag phase; also recorded: shortens the lag phase”. In addition, the “ThT signal from tau preformed fibrils (PFF)” value in experiment [2] is “did not reduce the ThT signal”. Further, the “size of FRET change among the hits” value in experiment [5] is “strongest change in FRET; also recorded: largest FRET change”. The pEC50 in [3] (read-out: EC50, decrease of FRET efficiency, WT tau biosensor) is 5.85.
